The record followed here is US10654852B2, “Antibiotics and methods of using same” (THE BROAD INSTITUTE, INC., priority 2016, dated 2020).

Converted amounts (≈) assume the structure as drawn.

Holding throughout (format): cell-based
Experiment [1] relates to Enterococcus faecium ATCC-700221. As to the kind of experiment: MIC (50% NHS). The settings on record: ATCC700221; Enterococcus faecium ATCC-700221, 50% NHS.
Experiment [2] deals with Escherichia coli CCUG-59353. Nature of the experiment: MIC (50% NHS). The settings on record: CCUG59353; Escherichia coli CCUG-59353, 50% NHS.
Experiment [3] has as its system Serratia marcescens Bizio ATCC-29021. Nature of the experiment: MIC (50% NHS). Conditions: ATCC29021; Serratia marcescens Bizio ATCC-29021, 50% NHS.
The subject of experiment [4] is Enterobacter cloacae ATCC-BAA-1143. As to the kind of experiment: MIC (50% NHS). The settings on record: ATCCBAA1143; Enterobacter cloacae ATCC-BAA-1143, 50% NHS.
For experiment [5], the system named is Enterobacter cloacae ATCC-222. As to the kind of experiment: MIC (50% NHS). Conditions: ATCC222; Enterobacter cloacae ATCC-222, 50% NHS.
Experiment [6] concerns Enterobacter aerogenes ATCC-13048. Nature of the experiment: MIC (50% NHS). The settings on record: Klebsiella aerogenes, ATCC13048; Enterobacter aerogenes ATCC-13048, 50% NHS.
Experiment [7] concerns Klebsiella pneumonia ATCC-43816. As to the kind of experiment: MIC (50% NHS). The settings on record: Klebsiella pneumoniae, ATCC43816; Klebsiella pneumonia ATCC-43816, 50% NHS.
The subject of experiment [8] is Klebsiella pneumonia ATCC-700603. As to the kind of experiment: MIC (50% NHS). The settings on record: Klebsiella pneumoniae, ATCC700603; Klebsiella pneumonia ATCC-700603, 50% NHS.
For experiment [9], the system named is Citrobacter werkmanii Brenner ATCC-51114. Nature of the experiment: MIC (50% NHS). Conditions: ATCC51114; Citrobacter werkmanii Brenner ATCC-51114, 50% NHS.
In experiment [10] the test system is Enterococcus faecalis ATCC-29212. As to the kind of experiment: MIC (50% NHS). Conditions: ATCC29212; Enterococcus faecalis ATCC-29212, 50% NHS.
In experiment [11] the test system is Escherichia coli ATCC-25922. As to the kind of experiment: MIC in the presence of normal human serum (50% NHS). The settings on record: ATCC25922; Escherichia coli ATCC-25922, 50% NHS, Table 6; read-out: MIC. An excerpt: As used herein, the term “MIC” refers to minimum inhibitory concentrations. Minimum inhibitory concentrations may be determined by broth microdilution according to the Clinical and Laboratory Standards Institute guidelines (see, e.g., […]-A8. Methods for dilution antimicrobial susceptibility tests for bacteria that grow aerobically: approved standard, 8th Ed.; […] One example for measuring minimum inhibitory concentrations may be found in Reck et al., 2012, J. Med. Chem. 55:6916-6933, the disclosure of which is incorporated by reference. Inoculants may be incubated on blood agar plates for 18 to 24 hours. Incubation may occur at a temperature from about 35° C. to about 37° C. […] In serum supplemented experiments, the testing medium (e.g., DMSO solution) and human serum may be mixed. The ratio of testing medium to human serum may be 1:1 (vol:vol). Plates may be read by spectrophotometry at 620 nm. Unless indicated otherwise, all inhibitory concentrations recited in the specification relate to MICs. The MIC tests were based on broth microdilution method in CLSI-M7. […] Solutions of varying concentrations of DMSO were prepared in wells of a v-bottom 96-well plate (Axygen-WIPP02280). A multi-pipette was used to perform serial dilutions as necessary. From well to well, the drug concentrations were 6.4, 3.2, 1.6, 0.8, 0.4, 0.2, 0.1, 0.05, 0.025, 0.0125, 0.00625 and 0 mg/ml in DMSO. For extremely potent antibiotic, the starting concentrations were adjusted accordingly. This was the drug mother plate. Daughter plates were prepared by placing 98 μl of a testing medium into each well of a u-bottom 96-well plate (Costar 3788). An aliquot of each 2 μl solution from each well of the mother plate was then transferred into the corresponding wells of the daughter plate using a multi-pipette work station (CyBi®-SELMA). Testing media were selected based on CLSI-M7, M11 and […]. Cation adjusted Mueller Hinton Broth (CA-MHB-212322) was the testing medium for majority of bacterial species. Brucella medium (BD-211088) supplemented with 5% LHB, 0.5% hemin and 0.1% vitamin K1 (Sigma-95271) was the testing medium for anaerobic bacteria. One day prior to the day of MIC test, bacterial strains were streaked out from -80° C. glycerol stock onto Trypticase Soy Agar (TSA) plates (Brucella blood agar for anaerobic bacteria) and incubated at 37° C. for 20 hours (in anaerobic condition for anaerobic bacteria, e.g., 80% N2, 10% H2 and 10% CO2). Single colonies of bacteria were picked by using an inoculation loop (Greiner-731175) and suspended into 5 ml sterile saline. The turbidity of the suspension was adjusted to 0.10 (Siemens MicroS can turbidity meter), which implies a concentration of colony forming units (“CFU”) of approximately 1.0×10^8 CFU/ml. The bacterial suspension was diluted 100× in testing media. For MIC experiments with NHS, testing medium and human serum (Equitech Bio Inc. BRH-949908) were mixed in the ratio of 1:1. This was used for inoculation of the daughter plates. An aliquot of 100 μl of the bacterial suspension was inoculated into each well of the daughter plates using a multi-pipette. […] The plates were incubated in ambient atmosphere and at 37° C. in an incubator for 20 hours (for anaerobic bacteria in an anaerobic condition as described above for 48 hours). The MIC values were determined and based on the standards of CLSI methods M7-A7, broth microdilution method. […] Test compounds were compared to control antibiotics Penicillin G (Sigma-13752) and levofloxacin (Sigma-28266). […] Additionally, the MIC's of another gyrase inhibitor (“GSK”) with a structure different from the inventive compounds and the antibacterial levofloxin was measured. MIC are given in μg/mL.

The subject of experiment [12] is Acinetobacter baumannii ATCC 17978. As to the kind of experiment: MIC (50% NHS). The settings on record: ATCC17978; Acinetobacter baumannii ATCC 17978, 50% NHS.
The subject of experiment [13] is Escherichia coli ATCC-BAA-2340. Nature of the experiment: MIC (50% NHS). The settings on record: ATCCBAA2340; Escherichia coli ATCC-BAA-2340, 50% NHS.
Experiment [14] relates to Pseudomonas aeruginosa ATCC-BAA-47 (PAO1). Nature of the experiment: MIC (50% NHS).
In experiment [15] the test system is Staphylococcus aureus NRS-100. As to the kind of experiment: MIC (50% NHS). Conditions: NRS100; Staphylococcus aureus NRS-100, 50% NHS.
Experiment [16] relates to Staphylococcus aureus ATCC-29213. As to the kind of experiment: MIC (50% NHS). The settings on record: ATCC29213; Staphylococcus aureus ATCC-29213, 50% NHS.
Experiment [17] concerns Proteus mirabilis ATCC-29906. As to the kind of experiment: MIC (50% NHS). The settings on record: ATCC29906; Proteus mirabilis ATCC-29906, 50% NHS.
For experiment [18], the system named is Staphylococcus aureus WX1-009. As to the kind of experiment: MIC (50% NHS). The settings on record: WX1009; Staphylococcus aureus WX1-009, 50% NHS.
For experiment [19], the system named is Staphylococcus aureus NRS-384. Nature of the experiment: MIC (50% NHS). Conditions: NRS384; Staphylococcus aureus NRS-384, 50% NHS.
For experiment [20], the system named is Escherichia coli NCTC-13476. As to the kind of experiment: MIC (50% NHS). The settings on record: NCTC13476; Escherichia coli NCTC-13476, 50% NHS.

With `C[C@H]1COc2c(N3CCN(C)CC3)c(F)cc3c(=O)c(C(=O)O)cn1c23` [Levofloxin, reference compound], the minimal inhibitory concentration (MIC) (in general, the smallest concentration in the dilution series that meets the test's criterion for growth inhibition) was > 2 mg/L in experiment [1]; > 2 mg/L in experiment [2]; 0.13 mg/L (≈ 0.36 µM) in experiment [3]; 0.06 mg/L (≈ 0.166 µM) in [4]; 0.06 mg/L (≈ 0.166 µM) in experiment [5]; 0.13 mg/L (≈ 0.36 µM) in experiment [6]. In addition, the minimum inhibitory concentration (MIC) in experiment [7] stood at 0.13 mg/L (≈ 0.36 µM); in [8], 0.5 mg/L (≈ 1.38 µM); in [9] it was 0.25 mg/L (≈ 0.692 µM); in experiment [10], 2 mg/L (≈ 5.53 µM); in experiment [11], 0.031 mg/L; in [12] it was 1 mg/L (≈ 2.77 µM). In addition, the minimal inhibitory concentration (MIC) was > 2 mg/L in [13]; 1 mg/L (≈ 2.77 µM) in experiment [14]; 0.5 mg/L (≈ 1.38 µM) in experiment [15]; 0.5 mg/L (≈ 1.38 µM) in [16]; 0.25 mg/L (≈ 0.692 µM) in experiment [17]; > 2 mg/L in [18]. Besides, the minimal inhibitory concentration (MIC) in experiment [19] was 1 mg/L (≈ 2.77 µM); in [20], > 2 mg/L.
